This experiment deals with T1, Human ATX protein (Homo sapiens, UniProt Q13822).
T1 construct: made in house
In words: Autotaxin (ATX) assay, FRET with FS-3 substrate. Type of experiment: biochemical. The conditions noted are these: upper bound bins (no greater than 100, 250 or 500 nM); FS-3 2 μM, ATX 1.0 μg/mL. The procedure, abridged: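 Hydrolysis of the FRET substrate FS-3 (2 μM final) unquenches fluorescein, read at excitation 485 nm and emission 538 nm after 2 h at room temperature, protected from light. Purified human ATX (1.0 μg/mL) and compound were first incubated for 30 min in pH 7.4 Tris/salt buffer containing 1 mg/mL fatty acid-free BSA.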

Consider 31 compounds from US20160039825A1 (BIOGEN MA INC., priority 2013, published 2016).

A value given as a limit tells only on which side of the number the result lay.

Turning to `O=C(O)c1nn2c(c1F)CN(C(=O)OCc1cc(Cl)cc(C(F)(F)F)c1)CCC2` [Example 399, 5-(((3-chloro-5-(trifluoromethyl)benzyl)oxy)carbonyl)-3-fluoro-5,6,7,8-tetrahydro-4H-pyrazolo[1,5-a][1,4]diazepine-2-carboxylic acid], the IC50 is at most 100 nM. `O=C(NC1CCC1)c1cc2n(n1)CCCN(C(=O)OCc1cc(Cl)cc(Cl)c1)C2` [Example 15, 3,5-Dichlorobenzyl 2-(cyclobutylcarbamoyl)-7,8-dihydro-4H-pyrazolo[1,5-a][1,4]diazepine-5(6H)-carboxylate] yielded an IC50 of at most 100 nM. The figure for `CC1CN(C(=O)c2cc3n(n2)CCN(C(=O)OCc2cc(C(F)(F)F)cc(C(F)(F)F)c2)C3)CCN1` (stereo not shown) [Example 439] is at most 100 nM; for `O=C(OCc1cc(C(F)(F)F)cc(C(F)(F)F)c1)N1CCCn2nc(N3CCNCC3)cc2C1` [Example 339] it is at most 250 nM. Regarding `O=C(O)c1nn2c(c1F)CN(C(=O)OCc1cc(C(F)(F)F)cc(C(F)(F)F)c1)CCC2` [Example 507, 5-(((3,5-bis(Trifluoromethyl)benzyl)oxy)carbonyl)-3-fluoro-5,6,7,8-tetrahydro-4H-pyrazolo[1,5-a][1,4]diazepine-2-carboxylic acid], the IC50 is at most 100 nM. `O=C(OCc1cc(Cl)cc(C(F)(F)F)c1)N1CCCn2nc(C(=O)N3CCCNCC3)cc2C1` [Example 193] had an IC50 of at most 100 nM.

In the case of `CC1CN(C(=O)c2cc3n(n2)CCN(C(=O)OCc2cc(C(F)(F)F)cc(C(F)(F)F)c2)C3)CC(C)N1C(=O)OC(C)(C)C` (stereo not shown) [Example 469], the IC50 is at most 100 nM.

`O=C(NC1CCCCC1)c1cc2n(n1)CCCN(C(=O)OCc1cc(Cl)cc(Cl)c1)C2` [Example 17, 3,5-Dichlorobenzyl 2-(cyclohexylcarbamoyl)-7,8-dihydro-4H-pyrazolo[1,5-a][1,4]diazepine-5(6H)-carboxylate]: the IC50 is at most 100 nM.

Regarding `CC(C)(C)NC(=O)c1cc2n(n1)CCCN(C(=O)OCc1cc(Cl)cc(Cl)c1)C2` [Example 14, 3,5-Dichlorobenzyl 2-(tert-butylcarbamoyl)-7,8-dihydro-4H-pyrazolo[1,5-a][1,4]diazepine-5(6H)-carboxylate], the IC50 is at most 250 nM.

`CC1CN(C(=O)OC(C)(C)C)CC(C)N1C(=O)c1cc2n(n1)CCN(C(=O)OCc1cc(C(F)(F)F)cc(C(F)(F)F)c1)C2` (stereo not shown) [Example 476] gave an IC50 of at most 100 nM. In the case of `CC(c1cc2n(n1)CCN(C(=O)OCc1cc(C(F)(F)F)cc(C(F)(F)F)c1)C2)N1CC2CCC(C1)N2C(=O)OC(C)(C)C` (stereo not shown) [Example 449] it was at most 100 nM. For the compound `CN1CCN(C(=O)c2cc3n(n2)CCCN(C(=O)OCc2cc(Cl)cc(Cl)c2)C3)CC1` [Example 25, 3,5-Dichlorobenzyl 2-(4-methylpiperazine-1-carbonyl)-7,8-dihydro-4H-pyrazolo[1,5-a][1,4]diazepine-5(6H)-carboxylate], the 50% inhibitory concentration (IC50) was at most 100 nM. For the compound `CC1CN(C(=O)c2cc3n(n2)CCCN(C(=O)OCc2cc(C(F)(F)F)cc(C(F)(F)F)c2)C3)CC(C)N1` (stereo not shown) [Example 223], the IC50 is at most 100 nM. For the compound `CC1COCC(C)N1CC(=O)c1cc2n(n1)CCCN(C(=O)OCc1cc(Cl)cc(C(F)(F)F)c1)C2` (stereo not shown) [Example 261], the IC50 was at most 100 nM. The figure for `O=C(O)C1CC2CCCC(C1)N2C(=O)c1cc2n(n1)CCN(C(=O)OCc1cccc(Cl)c1)C2` (stereo not shown) [Example 42, 9-(5-(((3-chlorobenzyl)oxy)carbonyl)-4,5,6,7-tetrahydropyrazolo[1,5-a]pyrazine-2-carbonyl)-9-azabicyclo[3.3.1]nonane-3-carboxylic acid] is at most 500 nM; for `CC(NC1=NCCS1)c1cc2n(n1)CCCN(C(=O)OCc1cc(Cl)cc(C(F)(F)F)c1)C2` (stereo not shown) [Example 156, 3-chloro-5-(trifluoromethyl)benzyl 2-(1-((4,5-dihydrothiazol-2-yl)amino)ethyl)-7,8-dihydro-4H-pyrazolo[1,5-a][1,4]diazepine-5(6H)-carboxylate] it is at most 100 nM. In the case of `CN(C)S(=O)(=O)c1cc2n(n1)CCCN(C(=O)OCc1cc(C(F)(F)F)cc(C(F)(F)F)c1)C2` [Example 302, 3,5-bis(trifluoromethyl)benzyl 2-(N,N-dimethylsulfamoyl)-7,8-dihydro-4H-pyrazolo[1,5-a][1,4]diazepine-5(6H)-carboxylate], the half-maximal inhibitory concentration (IC50) is at most 100 nM. The figure for `CN1CC2CN(c3cc4n(n3)CCCN(C(=O)OCc3cc(C(F)(F)F)cc(C(F)(F)F)c3)C4)CC2C1` (stereo not shown) [Example 349] is at most 100 nM; for `CC1CNCC(C)N1C(=O)c1cc2n(n1)CCN(C(=O)OCc1cc(C(F)(F)F)cc(C(F)(F)F)c1)C2` (stereo not shown) [Example 430] it is at most 100 nM; for `CC1(C)CNCCN1C(=O)c1cc2n(n1)CCN(C(=O)OCc1cc(Cl)cc(C(F)(F)F)c1)C2` [Example 432] it is at most 100 nM. The figure for `O=C(OCc1cc(C(F)(F)F)cc(C(F)(F)F)c1)N1CCCn2nc(C(=O)N3CC4CCC(C3)N4)cc2C1` [Example 221] is at most 100 nM; for `Cc1cc2n(n1)CCCN(C(=O)OCc1cc(C(F)(F)F)cc(C(F)(F)F)c1)C2` [Example 124, 3,5-Bis(trifluoromethyl)benzyl 2-methyl-7,8-dihydro-4H-pyrazolo[1,5-a][1,4]diazepine-5(6H)-carboxylate] it is at most 100 nM. The compound `O=C(OCc1cc(C(F)(F)F)cc(C(F)(F)F)c1)N1CCCn2nc(N3CCN4CCC[C@@H]4C3)cc2C1` [Example 347] returned an IC50 of at most 100 nM. As for `O=C(O)c1cc2n(n1)CCCN(C(=O)OCc1cc(F)cc(Br)c1)C2` [Example 75, 5-(((3-Bromo-5-fluorobenzyl)oxy)carbonyl)-5,6,7,8-tetrahydro-4H-pyrazolo[1,5-a][1,4]diazepine-2-carb oxylic acid], the IC50 was at most 500 nM. In turn, `O=C(O)C1CCCN(C(=O)c2cc3n(n2)CCCN(C(=O)OCc2cc(Cl)cc(Cl)c2)C3)C1` (stereo not shown) [Example 88, 1-(5-(((3,5-dichlorobenzyl)oxy)carbonyl)-5,6,7,8-tetrahydro-4H-pyrazolo[1,5-a][1,4]diazepine-2-carbonyl)piperidine-3-carboxylic acid] gave an IC50 of at most 250 nM. As for `O=C(OCc1cc(C(F)(F)F)cc(C(F)(F)F)c1)N1CCCn2nc(S(=O)(=O)N3C4CCCC3CCC4)cc2C1` [Example 306], the IC50 is at most 100 nM.

In turn, `CC1CN(C(=O)c2cc3n(n2)CCCN(C(=O)OCc2cc(Cl)cc(C(F)(F)F)c2)C3)CCN1` (stereo not shown) [Example 208] had an IC50 of at most 100 nM. The figure for `CC1CNCC(C)N1C(=O)c1cc2n(n1)CCCN(C(=O)OCc1cc(Cl)cc(C(F)(F)F)c1)C2` (stereo not shown) [Example 199] is at most 100 nM; for `O=C(N[C@H]1CC[C@H](C(=O)O)CC1)c1cc2n(n1)CCCN(C(=O)OCc1cc(Cl)cc(Cl)c1)C2` [Example 86, (trans)-4-(5-(((3,5-Dichlorobenzyl)oxy)carbonyl)-5,6,7,8-tetrahydro-4H-pyrazolo[1,5-a][1,4]diazepine-2-carboxamido)cyclohexanecarboxylic acid] it is at most 250 nM; for `CC1(C)CN(C(=O)c2cc3n(n2)CCCN(C(=O)OCc2cc(Cl)cc(C(F)(F)F)c2)C3)CCN1` [Example 200] it is at most 100 nM. Compound `CC1CNCCN1C(=O)c1cc2n(n1)CCCN(C(=O)OCc1cc(Cl)cc(C(F)(F)F)c1)C2` (stereo not shown) [Example 213] yielded an IC50 of at most 100 nM.
